Columns and labels:
[1] = Surface plasmon resonance, vancomycin over immobilized purified LPS*; parameters: species or system Escherichia coli; details: SPR, Biacore X100, 25° C., LPS* immobilized on CM3 chip, equilibrium signal fit; read-out: Kd, specific binding of vancomycin to LPS*
Description: (§1) The ability of purified LPS* to bind vancomycin in vitro was assessed. LPS* was immobilized on a carboxymethylated dextran (CM3) chip and surface plasmon resonance was used to monitor interactions with differing concentrations of vancomycin. […] To test this hypothesis, weperformed live cell microscopy using a fluorescent vancomycin-BODIPY. A wild-type strain background with an intact OM that prevents the influx of vancomycin was used, to avoid labeling intracellular sites of PG synthesis.

[2] = Surface plasmon resonance, vancomycin over reference channel (LPS from waaL+); type: binding, Escherichia coli; details: SPR, 25° C., different concentrations of vancomycin
Description: Purified LPS (0.5 mg/ml) from strains MG1210 or MG1211 were extruded in 20 mMTris/HCl pH 8, 150 mM NaCl and immobilized on poly-L-lysine coated CM3 Biacore chips on the active and reference channel, respectively (Malojcić et al., 2014). All experiments were performed using a Biacore X100 instrument at 25° C. at a flow rate of 10 μl/min with 20 mMTris/HCl pH 8, 150 mM NaCl buffer. Different concentrations of vancomycin were injected for 400 s and dissociation was recorded for another 500 s to return to baseline. […] The equilibrium signal in the difference channel was fitted to f=Bmax*abs(x)/(Kd+abs(x)) with R^2=0.88.

waaL+ cells = details: 1 μg/ml vancomycin-BODIPY-FL, 10 min, wild-type background with intact OM
Description: (§2) Overnight cultures were sub-cultured at 1:100 into fresh LB broth and grown for 1.5 h. A1 ml aliquot was taken, pelleted and was twice washed with 1 ml M63 medium. Cells were resuspended in 0.1 ml of M63 broth containing 1 μg/ml of vancomycin-BODIPY-FL (LifeTechnologies, V-34850). Cells were incubated at room temperature for 10 min and then washed twice with 1 ml M63 broth. Cells were then resuspended in 0.03 ml of M63 broth, and approximately […] was spotted onto an M63-agarose pad. Cells were immediately visualized on a Nikon Eclipse 90i microscope with a Nikon Plan Apo 1.4/100× Oil Ph3 phase objective.
as §1

waaL15 bacteria = details: 1 μg/ml vancomycin-BODIPY-FL, 10 min, wild-type background with intact OM
Description: as §2, §1

For `CN[C@H](CC(C)C)C(=O)N[C@H]1C(=O)N[C@@H](CC(N)=O)C(=O)N[C@H]2C(=O)N[C@H]3C(=O)N[C@H](C(=O)N[C@H](C(=O)O)c4cc(O)cc(O)c4-c4cc3ccc4O)[C@H](O)c3ccc(c(Cl)c3)Oc3cc2cc(c3O[C@@H]2O[C@H](CO)[C@@H](O)[C@H](O)[C@H]2O[C@H]2C[C@](C)(N)[C@H](O)[C@H](C)O2)Oc2ccc(cc2Cl)[C@H]1O` [vancomycin], the Kd [1] was 480 ± 80 nM and the “binding to the reference channel” value [2] was “No binding”.

With vancomycin-BODIPY-FL the “fluorescent labeling of cells” value (waaL+ cells) was “could not be fluorescently labeled” and the “fluorescent labeling of cells” value (waaL15 bacteria) was “circumferential labeling”.

Source: patent publication US9677052B2, “Modified lipopolysaccharide glycoform and method of use” (THE TRUSTEES OF PRINCETON UNIVERSITY, priority 2014, dated 2017)
